Literature values, collected in patent EP0266549A1, “Cinnamyl amines, process for their preparation and pharmaceutical compositions containing them” (BOEHRINGER MANNHEIM ITALIA S.P.A., priority 1986, dated 1988).
Structures can show the parent of a compound that is named as a salt.

Details: in vitro; Arch. lnt. Pharmacology, 272, 283, 1984; cited from earlier work

For `Fc1ccc(C(c2ccc(F)cc2)N2CCN(C/C=C/c3ccccc3)CC2)cc1` [Flunarizine HCl], the “activity as "radical scavenger"” value is listed as “very active”.
